Measurements from patent US20230002446A1, “ANTI-INFLAMMATORY AGENTS” (The University of Sydney, priority 2019, published 2023).
Where a SMILES comes first, the peptide text is derived from it. [ ]: non-standard residue; d: D form. AEEA = NCCOCCOCC(=O)O

Experiments:
[1] = tested on: C57BL/6 mice; assay: oxazolone murine model of atopic dermatitis; format: in vivo; conditions: injection at day -1, or both day -7 and day -1; compared to PBS
Excerpt: (§1) FIG. 13. RP23 treatment reduces inflammation in a murine model of atopic dermatitis. Ears and shaved backs of C57BL/6 female mice were sensitised (day 0) and challenged (day 7, 10, 14, 17, 19, 21, 23, 25 and 27) with topical application of the irritant oxazolone or vehicle only. Injection of mice with RP23 at day −1, or both day −7 and day −1, is compared to injection with PBS only (day −7 and day −1) or topical application of steroid (0.01% betamethasone dipropionate, 30 mgs) applied on the back at the time of every oxazolone application. Ear thickness was measured with manual callipers. Data are the means+/−SEM (n=5).
as §1, with “Ears” for “FIG. 13. RP23 treatment reduces inflammation in a murine model of atopic dermatitis. Ears”, “−1, was” for “−1, is”, “callipers.” for “callipers. Data are the means+/−SEM (n=5).”

[2] = tested on: dermal dendritic cells; assay: intradermal injection into healthy human skin explants, myeloid cell activation; format: cell-based; conditions: intra-dermal injection, overnight culture
Protocol: FIG. 7—Peptide administration reduces spontaneous myeloid cell activation in human skin. (A) Peptide RP23 (SEQ ID NO: 12) was injected intradermally into healthy human skin grafts. Myeloid cell activation was assessed after overnight culture. (B) The effect of peptide RP23 on the spontaneous upregulation of activation markers on myeloid cell subsets in the skin. Data are representative of 6 donors.
Using an in vitro culture system, it was determined whether RP23 could suppress the activity of specific pro-inflammatory immune cells. […] The culture of murine bone marrow derived macrophages with RP23 led to reduced IL-6, MCP-1 and TNF release after LPS-stimulation (FIG. 5b). Similarly, primary human blood derived macrophages had reduced IL-6 and IL-12/23 release after stimulation with either LPS or imiquimod (FIG. 5c).

[3] = tested on: primary murine splenic dendritic cells; assay: LPS-stimulated murine splenocytes, DC activation (flow cytometry); format: cell-based
Protocol: FIG. 5—Peptide administration reduces the activation of pro-inflammatory DCs and macrophages. (A) C57BL/6 murine splenocytes were stimulated with LPS±peptide RP23 (SEQ ID NO:12) and expression of activation markers on DCs was assessed by flow cytometry. (B) Bone marrow derived murine macrophages were incubated with peptide RP23 (30 mins) and stimulated with LPS (overnight). Positive controls were stimulated with LPS only. Negative controls were unstimulated. Inflammatory cytokine production was assessed by ELISA. (C) CD14+ cells were isolated from human blood and differentiated into macrophages by culturing with human serum. Cells were incubated with peptide RP23 (30 mins), then stimulated overnight with LPS (left panel) or imiquimod (right panel). Inflammatory cytokine (IL-6 or IL-12/23) production was assessed by ELISA. Representative of 6 donors. Data are presented as mean±S.E.M. Statistical significance was determined by ANOVA with Dunnett's multiple comparison test, *p<0.05, **p<0.01, ***p<0.001.
Using an in vitro culture system, it was determined whether RP23 could suppress the activity of specific pro-inflammatory immune cells. […] The culture of murine bone marrow derived macrophages with RP23 led to reduced IL-6, MCP-1 and TNF release after LPS-stimulation (FIG. 5b). […]

[4] = tested on: CD11c+ dendritic cells; assay: MHCII on CD11c+ dendritic cells after intra-nasal instillation; format: in vivo, mice
Protocol: FIG. 15. Mucosal delivery of RP23 to the lungs decreases activation of antigen presenting cells in the lungs and bronchoalveolar space. (A) C57BL/6 mice (n=5) received either PBS or RP23 by intra-nasal instillation or (B) C57BL/6 mice (n=4) received either PBS, scramble RP23 peptide, or RP23 by intra-nasal instillation, then 24 hours later, Pam2Cys-SK4-PEG(OH) intra-nasally to induce an inflammatory state. 24 hours later, cells from the bronchoalveolar lavage and perfused lungs were collected. The median fluorescence intensity of MHCII on CD11c^+ dendritic cells was determined by flow cytometry. Data are the means+/−SEM. Statistical significance was determined by (A) t-test, ***p<0.001 and (B) ANOVA with Dunnett's multiple comparison test to PBS control, *p<0.05.
Naïve C57BL/6 mice (n=5) received either PBS or RP23 by intra-nasal instillation, then 24 hours later, cells from the bronchoalveolar lavage and perfused lungs were collected. The median fluorescence intensity of MHCII on CD11c+ dendritic cells was determined by flow cytometry. […] To determine if this effect would be maintained once potent lung inflammation was induced, C57BL/6 mice (n=4) received either PBS, scramble RP23 peptide, or RP23 by intra-nasal instillation, then 24 hours later, Pam2Cys-SK4-PEG(OH) was given intra-nasally to induce an inflammatory state.

[5] = tested on: human macrophages/monocytes; format: cell-based
Protocol: (§2) FIG. 6—Peptide administration is not cytostatic or cytotoxic to murine and human macrophages/monocytes. Cytostatic/cytotoxic effect of peptide RP23 (SEQ ID NO:12) was assessed after overnight incubation (A) by WST-1 assay in RAW and THP-1 cell lines (data are the means of 2 replicates) (B) by LDH assay in primary murine BMDMs or human MDMs (data are mean±S.E.M).

[6] = tested on: murine macrophages/monocytes; format: cell-based
Protocol: as §2

[7] = Pam2Cys-SK4-PEG(OH) intra-nasally 24 hours after peptide

SMILES: CSCC[C@H](NC(=O)COCCOCCNC(=O)[C@H](CCCCN)NC(=O)[C@H](CCCCN)NC(=O)[C@H](CCCCN)NC(=O)[C@@H](N)CCCCN)C(=O)N[C@H](C(=O)N1CCC[C@H]1C(=O)NCC(=O)N[C@H](C(=O)N[C@@H](CCC(N)=O)C(=O)N[C@@H](CO)C(=O)N1CCC[C@H]1C(=O)N[C@@H](Cc1ccccc1)C(=O)N[C@@H](Cc1ccccc1)C(=O)N[C@@H](CC(C)C)C(=O)N[C@@H](CC(C)C)C(=O)N[C@@H](CC(C)C)C(=O)N[C@@H](CC(C)C)C(=O)N[C@@H](CC(C)C)C(=O)N[C@H](C(=O)N[C@H](C(=O)N[C@@H](CC(C)C)C(=O)N[C@H](C(=O)N[C@H](C(=O)N[C@H](C(=O)O)C(C)C)C(C)C)[C@@H](C)O)C(C)C)[C@@H](C)O)[C@@H](C)O)[C@@H](C)O [RP23] (H-KKKK[AEEA]MTPGTQSPFFLLLLLTVLTVV-OH)
- inflammation in the ears (ear thickness) [1]: reduced inflammation in the ears
- spontaneous activation of dermal dendritic cells [2]: reduced spontaneous activation of dermal dendritic cells
- expression of surface activation markers ([3]; LPS stimulation): reduced
- secretion of inflammatory chemokines ([3]; data not shown): reduced the secretion of inflammatory chemokines
- MHCII expression on DC in the bronchoalveolar space [4, 7]: also on DC in the bronchoalveolar space
- MHCII expression on lung DC [4, 7]: reduced MHCII expression on lung DC
- MHCII expression on DC in the lung tissue ([4]; naive mice, 24 hours after intra-nasal instillation): substantially reduced
- cytostatic or cytotoxic effects [5]: without causing any cytostatic or cytotoxic effects
- cytostatic or cytotoxic effects [6]: without causing any cytostatic or cytotoxic effects
